Active and inactive are the calls of the source. The calls are words filed in the database; no cut-off is given here.
Tests used:
[1] = biological target: T1, Tyrosine-protein kinase JAK2 (Homo sapiens, UniProt O60674); experiment: Inhibition of JAK2 (unknown origin) using FAM-labelled peptide and ATP at 100 nM measured after 25 mins incubation relative to control
[2] = system: RAW264.7; experiment: cells; format: functional; details: Mus musculus, time 24 hrs
Description: Antiinflammatory activity in mouse RAW264.7 cells assessed as inhibition of LPS-induced NO release at 0.4 uM incubated for 24 hrs relative to control

[3] = system: HaCaT; experiment: cells; details: Homo sapiens, 48 h
Description: Antiproliferative activity against human HaCAT cells assessed as inhibition of TNFalpha-induced proliferation measured after 48 hrs by CCK-8 assay

[4] = biological target: Histone deacetylase 1 (Homo sapiens, UniProt Q13547); experiment: Inhibition of recombinant human HDAC1 using (Ac-Leu-Gly-Lys(Ac)-AMC as substrate measured after 30 mins by fluorescence assay
Histone deacetylase 1, sequence (Q13547 whole entry): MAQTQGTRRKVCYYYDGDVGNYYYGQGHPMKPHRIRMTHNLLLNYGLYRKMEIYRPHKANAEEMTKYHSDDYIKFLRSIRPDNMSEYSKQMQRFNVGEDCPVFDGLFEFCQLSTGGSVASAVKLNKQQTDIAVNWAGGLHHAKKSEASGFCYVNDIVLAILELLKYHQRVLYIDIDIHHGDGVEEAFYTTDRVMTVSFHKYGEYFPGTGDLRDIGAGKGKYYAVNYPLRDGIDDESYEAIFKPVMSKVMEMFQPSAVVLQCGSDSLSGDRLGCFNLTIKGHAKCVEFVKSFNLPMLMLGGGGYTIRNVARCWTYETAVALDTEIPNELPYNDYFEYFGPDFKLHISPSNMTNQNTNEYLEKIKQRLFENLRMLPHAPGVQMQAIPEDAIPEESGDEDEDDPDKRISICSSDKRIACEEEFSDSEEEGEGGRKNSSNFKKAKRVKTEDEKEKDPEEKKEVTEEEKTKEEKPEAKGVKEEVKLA

[5] = Antiproliferative activity against HUVEC cells; details: human
[6] = system: RAW264.7; experiment: Antiinflammatory activity in mouse RAW264.7 cells assessed as inhibition of LPS-induced NO release at 0.20 uM incubated for 24 hrs relative to control; format: functional
[7] = system: RAW264.7; experiment: Antiinflammatory activity in mouse RAW264.7 cells assessed as inhibition of LPS-induced NO release at 0.10 uM incubated for 24 hrs relative to control; format: functional
[8] = system: RAW264.7; experiment: Antiinflammatory activity in mouse RAW264.7 cells assessed as inhibition of LPS-induced TNFalpha release at 0.9 uM incubated for 24 hrs by ELISA; format: functional, cell-based
[9] = system: RAW264.7; experiment: Antiinflammatory activity in mouse RAW264.7 cells assessed as inhibition of LPS-induced IL-12 release at 0.9 uM incubated for 24 hrs by ELISA; format: functional, cell-based
[10] = system: RAW264.7; experiment: Antiinflammatory activity in mouse RAW264.7 cells assessed as inhibition of LPS-induced IFN-gamma release at 0.9 uM incubated for 24 hrs by ELISA; format: functional, cell-based
[11] = biological target: T1, Tyrosine-protein kinase JAK2; experiment: Inhibition of JAK2 (unknown origin) using FAM-labelled peptide and ATP measured after 25 mins incubation relative to control
[12] = biological target: T2, Tyrosine-protein kinase JAK3 (Homo sapiens, UniProt P52333); experiment: Inhibition of JAK3 (unknown origin) using FAM-labelled peptide and ATP measured after 25 mins incubation relative to control
T2 sequence (P52333 whole entry): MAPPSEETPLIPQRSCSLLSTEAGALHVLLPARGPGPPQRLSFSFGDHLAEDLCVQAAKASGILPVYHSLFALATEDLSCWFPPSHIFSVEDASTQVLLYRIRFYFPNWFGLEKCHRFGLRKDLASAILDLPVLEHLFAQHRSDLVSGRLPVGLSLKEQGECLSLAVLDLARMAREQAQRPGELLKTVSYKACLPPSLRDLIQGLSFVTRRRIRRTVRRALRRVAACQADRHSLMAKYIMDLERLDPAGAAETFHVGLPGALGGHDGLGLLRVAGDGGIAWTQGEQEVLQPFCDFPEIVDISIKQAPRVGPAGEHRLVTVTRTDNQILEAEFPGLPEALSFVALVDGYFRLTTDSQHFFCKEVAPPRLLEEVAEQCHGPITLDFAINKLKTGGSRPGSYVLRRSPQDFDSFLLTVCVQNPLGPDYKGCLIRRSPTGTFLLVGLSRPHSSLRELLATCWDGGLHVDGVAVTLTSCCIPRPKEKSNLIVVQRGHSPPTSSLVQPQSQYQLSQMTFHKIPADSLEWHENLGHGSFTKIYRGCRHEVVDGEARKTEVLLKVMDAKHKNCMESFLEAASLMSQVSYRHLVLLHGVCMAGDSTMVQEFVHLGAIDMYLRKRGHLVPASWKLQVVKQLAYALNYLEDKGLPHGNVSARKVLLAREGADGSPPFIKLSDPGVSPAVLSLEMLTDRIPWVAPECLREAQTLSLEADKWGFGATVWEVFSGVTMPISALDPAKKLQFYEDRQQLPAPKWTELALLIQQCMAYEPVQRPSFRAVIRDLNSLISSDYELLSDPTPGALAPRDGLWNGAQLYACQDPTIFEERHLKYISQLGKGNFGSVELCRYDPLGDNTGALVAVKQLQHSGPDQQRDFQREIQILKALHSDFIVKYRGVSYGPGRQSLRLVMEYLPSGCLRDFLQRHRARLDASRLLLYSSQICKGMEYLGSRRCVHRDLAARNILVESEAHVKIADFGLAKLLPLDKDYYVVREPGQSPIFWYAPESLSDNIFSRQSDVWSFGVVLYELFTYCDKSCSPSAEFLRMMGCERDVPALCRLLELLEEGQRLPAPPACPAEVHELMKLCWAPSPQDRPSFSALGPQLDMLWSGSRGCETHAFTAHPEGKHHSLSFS

[13] = biological target: Non-receptor tyrosine-protein kinase TYK2 (Homo sapiens, UniProt P29597); experiment: Inhibition of TYK2 (unknown origin) using FAM-labelled peptide and ATP measured after 25 mins incubation relative to control
Non-receptor tyrosine-protein kinase TYK2, sequence (P29597 whole entry): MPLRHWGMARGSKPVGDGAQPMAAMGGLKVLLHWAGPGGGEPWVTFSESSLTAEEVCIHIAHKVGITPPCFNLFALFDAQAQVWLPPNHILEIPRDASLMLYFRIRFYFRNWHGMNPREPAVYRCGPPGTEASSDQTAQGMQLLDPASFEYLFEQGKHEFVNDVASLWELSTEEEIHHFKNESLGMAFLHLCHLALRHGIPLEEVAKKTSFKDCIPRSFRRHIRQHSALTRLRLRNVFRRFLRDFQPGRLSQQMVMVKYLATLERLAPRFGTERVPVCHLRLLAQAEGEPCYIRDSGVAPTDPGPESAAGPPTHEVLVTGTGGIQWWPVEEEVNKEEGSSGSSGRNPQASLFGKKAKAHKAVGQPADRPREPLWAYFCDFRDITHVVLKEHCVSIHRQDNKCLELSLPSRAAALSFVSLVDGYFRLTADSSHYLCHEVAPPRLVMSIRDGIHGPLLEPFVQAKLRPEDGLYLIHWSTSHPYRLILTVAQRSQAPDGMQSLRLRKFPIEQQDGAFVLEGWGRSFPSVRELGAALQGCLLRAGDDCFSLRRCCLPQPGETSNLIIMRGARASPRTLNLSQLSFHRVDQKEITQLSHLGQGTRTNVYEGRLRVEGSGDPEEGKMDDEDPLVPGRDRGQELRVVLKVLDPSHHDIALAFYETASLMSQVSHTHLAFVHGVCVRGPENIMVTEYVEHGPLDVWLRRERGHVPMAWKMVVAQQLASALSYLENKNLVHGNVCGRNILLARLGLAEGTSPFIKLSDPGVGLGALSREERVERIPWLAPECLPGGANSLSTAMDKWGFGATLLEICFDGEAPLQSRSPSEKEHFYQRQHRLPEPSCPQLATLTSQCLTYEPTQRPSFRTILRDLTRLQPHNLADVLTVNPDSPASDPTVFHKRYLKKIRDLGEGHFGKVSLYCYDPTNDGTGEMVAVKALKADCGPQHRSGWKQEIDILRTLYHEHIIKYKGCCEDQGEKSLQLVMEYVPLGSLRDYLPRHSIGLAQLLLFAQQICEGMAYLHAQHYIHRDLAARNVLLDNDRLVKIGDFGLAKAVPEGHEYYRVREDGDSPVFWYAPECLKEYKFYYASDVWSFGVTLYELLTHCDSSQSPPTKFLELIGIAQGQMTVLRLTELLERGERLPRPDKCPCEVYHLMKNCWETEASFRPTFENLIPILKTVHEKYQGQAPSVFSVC

[14] = biological target: Platelet-derived growth factor receptor alpha (Homo sapiens) (UniProt P16234); experiment: Inhibition of PDGFRalpha (unknown origin) at 10 nM relative to control
Platelet-derived growth factor receptor alpha (Homo sapiens), sequence (P16234 whole entry): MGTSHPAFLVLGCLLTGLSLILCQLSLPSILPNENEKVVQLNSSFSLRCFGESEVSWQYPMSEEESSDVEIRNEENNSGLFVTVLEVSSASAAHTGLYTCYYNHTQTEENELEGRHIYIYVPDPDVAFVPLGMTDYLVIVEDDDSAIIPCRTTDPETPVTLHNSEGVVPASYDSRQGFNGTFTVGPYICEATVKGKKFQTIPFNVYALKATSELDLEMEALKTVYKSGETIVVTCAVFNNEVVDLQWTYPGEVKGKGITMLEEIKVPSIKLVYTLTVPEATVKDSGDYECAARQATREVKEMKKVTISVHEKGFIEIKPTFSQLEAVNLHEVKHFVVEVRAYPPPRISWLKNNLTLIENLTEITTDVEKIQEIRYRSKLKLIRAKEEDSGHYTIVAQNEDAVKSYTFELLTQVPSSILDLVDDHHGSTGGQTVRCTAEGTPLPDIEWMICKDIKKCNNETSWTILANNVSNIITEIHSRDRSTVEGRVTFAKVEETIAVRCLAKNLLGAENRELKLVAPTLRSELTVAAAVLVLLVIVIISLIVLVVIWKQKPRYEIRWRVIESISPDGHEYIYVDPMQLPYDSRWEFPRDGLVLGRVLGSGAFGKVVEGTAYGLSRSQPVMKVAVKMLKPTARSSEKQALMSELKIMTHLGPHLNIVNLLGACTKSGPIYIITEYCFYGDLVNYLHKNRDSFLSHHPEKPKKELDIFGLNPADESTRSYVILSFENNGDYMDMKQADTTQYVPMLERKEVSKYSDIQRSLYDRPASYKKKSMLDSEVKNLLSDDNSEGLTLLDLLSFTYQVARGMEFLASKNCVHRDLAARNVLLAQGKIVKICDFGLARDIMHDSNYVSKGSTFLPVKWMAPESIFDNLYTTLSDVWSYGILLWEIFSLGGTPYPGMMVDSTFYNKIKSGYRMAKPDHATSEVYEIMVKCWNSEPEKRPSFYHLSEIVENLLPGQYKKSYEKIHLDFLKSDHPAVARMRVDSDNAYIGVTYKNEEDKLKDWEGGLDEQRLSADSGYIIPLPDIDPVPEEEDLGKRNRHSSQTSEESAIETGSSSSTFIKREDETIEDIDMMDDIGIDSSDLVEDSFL

[15] = Metabolic stability of the compound in female ICR mouse liver microsomes assessed as half life at 1 uM measured up to 45 mins by LC-MS/MS analysis; format: ADME
[16] = Metabolic stability of the compound in female ICR mouse liver microsomes assessed as clearance at 1 uM measured up to 45 mins by LC-MS/MS analysis; format: ADME; details: read-out: CLH
[17] = system: Mus musculus; experiment: Antipsoriatic activity against imiquimod-induced psoriasis BALB/c mouse model assessed as improvement in psoriatic symptom at 0.25 to 0.5 % applied topically back of the mouse for 7 consecutive days; format: functional, organism-based; details: dose 0.25-0.5 %, route top
[18] = system: Mus musculus; experiment: Antipsoriatic activity against imiquimod-induced psoriasis BALB/c mouse model assessed as improvement in psoriatic symptom at 0.25 % applied topically back of the mouse for 7 consecutive days; format: functional, organism-based; details: route top
[19] = system: Mus musculus; experiment: Antipsoriatic activity against imiquimod-induced psoriasis BALB/c mouse model assessed as reduction in skin thickness at 0.25 % applied topically back of the mouse for 7 consecutive days by hematoxylin and eosin staining based histological analysis; format: functional, organism-based; details: route top
[20] = system: Mus musculus; experiment: Antipsoriatic activity against imiquimod-induced psoriasis BALB/c mouse model assessed as reduction in epidermal thickness applied topically back of the mouse for 7 consecutive days by hematoxylin and eosin staining based histological analysis; format: functional, organism-based; details: dose 0.25-0.5 %, route top
[21] = Acute toxicity in BALB/c mouse assessed as animal death at 7508 mg/kg; format: organism-based; details: in vivo
[22] = Acute toxicity in BALB/c mouse assessed as animal death; details: in vivo
[23] = biological target: T3, Histone deacetylase 8 (Homo sapiens, UniProt Q9BY41); experiment: Inhibition of recombinant human HDAC8 using (Ac-Leu-Gly-Lys(Tfa)-AMC as substrate measured after 30 mins by fluorescence assay
T3 sequence (Q9BY41 whole entry): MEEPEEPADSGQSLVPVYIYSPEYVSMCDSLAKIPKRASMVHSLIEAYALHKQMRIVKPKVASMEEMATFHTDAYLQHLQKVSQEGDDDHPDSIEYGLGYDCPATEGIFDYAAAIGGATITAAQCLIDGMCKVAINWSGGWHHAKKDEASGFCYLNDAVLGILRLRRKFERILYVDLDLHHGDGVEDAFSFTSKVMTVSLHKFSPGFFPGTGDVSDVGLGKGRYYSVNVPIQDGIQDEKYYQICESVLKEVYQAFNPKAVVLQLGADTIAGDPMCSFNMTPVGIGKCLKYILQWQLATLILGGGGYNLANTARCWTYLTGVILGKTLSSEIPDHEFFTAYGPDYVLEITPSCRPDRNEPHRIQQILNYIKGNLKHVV

[24] = system: Mus musculus; experiment: Antipsoriatic activity against imiquimod-induced psoriasis BALB/c mouse model assessed as improvement in psoriatic symptom at 0.5 % applied topically back of the mouse for 7 consecutive days; format: functional, organism-based; details: route top
[25] = system: Mus musculus; experiment: Antipsoriatic activity against imiquimod-induced psoriasis BALB/c mouse model assessed as reduction in skin thickness at 0.5 % applied topically back of the mouse for 7 consecutive days by hematoxylin and eosin staining based histological analysis; format: functional, organism-based; details: route top
[26] = Antiproliferative activity against human LO2 cells; format: toxicity, cell-based, L02

T1 sequence (O60674 whole entry): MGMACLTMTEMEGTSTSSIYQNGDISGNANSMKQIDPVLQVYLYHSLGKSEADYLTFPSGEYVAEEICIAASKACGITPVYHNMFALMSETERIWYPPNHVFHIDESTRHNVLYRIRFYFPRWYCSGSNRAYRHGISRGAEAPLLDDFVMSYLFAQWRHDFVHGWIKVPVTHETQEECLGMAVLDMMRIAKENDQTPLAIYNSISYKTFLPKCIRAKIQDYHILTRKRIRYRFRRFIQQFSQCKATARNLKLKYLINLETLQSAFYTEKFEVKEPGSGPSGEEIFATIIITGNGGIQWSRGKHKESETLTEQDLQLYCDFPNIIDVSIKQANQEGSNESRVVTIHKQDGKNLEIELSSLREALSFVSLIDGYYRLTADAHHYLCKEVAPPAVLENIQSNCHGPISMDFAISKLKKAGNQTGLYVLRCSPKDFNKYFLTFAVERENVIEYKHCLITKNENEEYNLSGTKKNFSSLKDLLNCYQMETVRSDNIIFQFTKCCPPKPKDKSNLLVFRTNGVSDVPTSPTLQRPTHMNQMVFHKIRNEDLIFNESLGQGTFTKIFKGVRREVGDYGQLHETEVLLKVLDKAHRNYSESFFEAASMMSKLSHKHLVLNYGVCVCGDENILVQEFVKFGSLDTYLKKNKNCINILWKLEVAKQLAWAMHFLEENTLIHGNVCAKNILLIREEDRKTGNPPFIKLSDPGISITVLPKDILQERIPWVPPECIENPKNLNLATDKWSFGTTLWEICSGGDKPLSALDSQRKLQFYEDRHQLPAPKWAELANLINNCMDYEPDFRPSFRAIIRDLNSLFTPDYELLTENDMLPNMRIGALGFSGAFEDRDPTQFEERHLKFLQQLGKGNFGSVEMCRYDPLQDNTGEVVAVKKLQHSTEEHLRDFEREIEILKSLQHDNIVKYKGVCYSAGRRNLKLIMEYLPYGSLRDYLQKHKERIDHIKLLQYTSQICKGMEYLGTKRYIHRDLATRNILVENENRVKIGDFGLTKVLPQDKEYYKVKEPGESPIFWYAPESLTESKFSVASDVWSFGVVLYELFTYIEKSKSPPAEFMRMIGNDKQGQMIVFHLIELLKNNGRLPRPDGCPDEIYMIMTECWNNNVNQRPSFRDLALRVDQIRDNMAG

SMILES	inhibition [1] [%]	inhibition at 0.4 µM [2] [%]	IC50 [3] [µM]	further results
CS(=O)(=O)Nc1ccc(-c2ccnc(Nc3ccc(N4CCN(CC(=O)Nc5ccc(C(=O)NO)s5)CC4)cc3)n2)cc1	99	82.1	1.4	
CS(=O)(=O)Nc1ccc(-c2ccnc(Nc3ccc(N4CCN(CC(=O)NCCCCC(=O)NO)CC4)cc3)n2)cc1	98		16	
CS(=O)(=O)Nc1ccc(-c2ccnc(Nc3ccc(-c4cn(CC(=O)NO)nn4)cc3)n2)cc1	99		> 50	IC50 [4]: > 2 µM
N#CCNC(=O)c1ccc(-c2ccnc(Nc3ccc(N4CCOCC4)cc3)n2)cc1 [MOMELOTINIB]		94.8	13	IC50 [4]: 0.04 µM; IC50 [5]: 7.3 µM
CS(=O)(=O)Nc1ccc(-c2ccnc(Nc3ccc(N4CCN(CC(=O)NCCCC(=O)NO)CC4)cc3)n2)cc1	100		17	
CS(=O)(=O)Nc1ccc(-c2ccnc(Nc3ccc(-c4cn(CC(=O)NCCCCCCC(=O)NO)nn4)cc3)n2)cc1	99		> 50	
CS(=O)(=O)Nc1ccc(-c2ccnc(Nc3ccc(-c4cn(CC(=O)Nc5ccc(C(=O)NO)cc5)nn4)cc3)n2)cc1	98		> 50	IC50 [4]: > 2 µM
CS(=O)(=O)Nc1ccc(-c2ccnc(Nc3ccc(-c4cn(CC(=O)NCCC(=O)NO)nn4)cc3)n2)cc1	97		> 50	
CS(=O)(=O)Nc1ccc(-c2ccnc(Nc3ccc(-c4cn(CC(=O)NCCCC(=O)NO)nn4)cc3)n2)cc1	99		> 50	
CS(=O)(=O)Nc1ccc(-c2ccnc(Nc3ccc(N4CCN(CC(=O)Nc5ccc(C(=O)NO)cc5)CC4)cc3)n2)cc1	99	105	1.2	inhibition at 0.2 µM [6]: 105%; inhibition at 0.1 µM [7]: 105%; Activity [8]: Active; Activity [9]: Active; Activity [10]: Active; IC50 [11]: 0.00049 µM; IC50 [12]: 0.0056 µM; IC50 [13]: 0.0026 µM; inhibition [14]: > 50%; half-life at 1 µM [15]: 39.8 min; CLint scaled at 1 µM [16]: 138 mL/min/kg; Activity [17]: Active; Activity [18]: Active; Compound Showed Better Activity Than 11G And Vorinostat/Momelotinib Control; Activity [19]: Active; Activity [20]: Dose-dependent-effect; IC50 [5]: 10 µM; Activity [21]: Non-toxic; LD50 [22]: > 7510 mg/kg
CS(=O)(=O)Nc1ccc(-c2ccnc(Nc3ccc(N4CCN(CC(=O)NCCCCCCC(=O)NO)CC4)cc3)n2)cc1	99	73.9	5.3	
CS(=O)(=O)Nc1ccc(-c2ccnc(Nc3ccc(N4CCN(CC(=O)NO)CC4)cc3)n2)cc1	99		10	IC50 [4]: > 2 µM
CS(=O)(=O)Nc1ccc(-c2ccnc(Nc3ccc(N4CCN(CC(=O)NCCC(=O)NO)CC4)cc3)n2)cc1	99		> 50	IC50 [4]: > 2 µM
CS(=O)(=O)Nc1ccc(-c2ccnc(Nc3ccc(N4CCN(CC(=O)Nc5ccc(/C=C/C(=O)NO)cc5)CC4)cc3)n2)cc1	99	110		inhibition at 0.2 µM [6]: 105%; inhibition at 0.1 µM [7]: 82.1%; Activity [8]: Active; Activity [9]: Active; Activity [10]: Active; IC50 [11]: 0.00072 µM; IC50 [12]: 0.0079 µM; IC50 [13]: 0.0044 µM; IC50 [23]: > 1 µM; half-life at 1 µM [15]: 56.3 min; CLint scaled at 1 µM [16]: 97.5 mL/min/kg; Activity [24]: Active; Activity [25]: Active; Activity [19]: Active; IC50 [26]: 5 µM
CS(=O)(=O)Nc1ccc(-c2ccnc(Nc3ccc(N4CCN(CC(=O)NCCCCCC(=O)NO)CC4)cc3)n2)cc1	99		9.6	
CS(=O)(=O)Nc1ccc(-c2ccnc(Nc3ccc(N4CCN(CC(=O)NCCCCCCCC(=O)NO)CC4)cc3)n2)cc1	100	71.3	10	
CS(=O)(=O)Nc1ccc(-c2ccnc(Nc3ccc(-c4cn(CC(=O)NCCCCC(=O)NO)nn4)cc3)n2)cc1	98		> 50	
CS(=O)(=O)Nc1ccc(-c2ccnc(Nc3ccc(-c4cn(CC(=O)NCCCCCCCC(=O)NO)nn4)cc3)n2)cc1			> 50	
C[C@@H]1CCN(C(=O)CC#N)C[C@@H]1N(C)c1ncnc2[nH]ccc12 [TOFACITINIB]			> 50	
CS(=O)(=O)Nc1ccc(-c2ccnc(Nc3ccc(-c4cn(CC(=O)NCCCCCC(=O)NO)nn4)cc3)n2)cc1	98		> 50	
